Measured values taken from ChEMBL document CHEMBL1201862, “PubChem BioAssay data set” (2004).
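Method: 48-hour compound exposure of cells in 96-well plates, five concentrations, linear interpolation of endpoints. GI50: concentration for 50% inhibition of growth.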 Activity calls are given as the source filed them. Cut-off read from the data, not from the text of the source: active = GI50 up to about 1.1 µM and inactive = higher.

Experiments:
Assay in all cases: DTP human tumour cell line panel, 48 h
UO-31 = tested on: UO-31
RPMI-8226 = tested on: RPMI-8226
LOX IMVI = tested on: LOX IMVI
UACC-257 = tested on: UACC-257
OVCAR-5 = tested on: OVCAR-5
M14 = tested on: M14
HL-60 = tested on: HL-60
COLO 205 = tested on: COLO 205
RXF 393 = tested on: RXF 393
HOP-62 = tested on: HOP-62
EKVX = tested on: EKVX
SNB-75 = tested on: SNB-75
SW-620 = tested on: SW-620
HCC 2998 = tested on: HCC 2998
K562 = tested on: K562
SK-OV-3 = tested on: SK-OV-3
M19-MEL = tested on: M19-MEL
DMS-273 = tested on: DMS-273
NCI-H226 = tested on: NCI-H226
KM-20L2 = tested on: KM-20L2

Measured: GI50

COC(=O)/C=C\n1nc(Br)c(=O)[nH]c1=O
inactive: UO-31 > 100 µM | RPMI-8226 > 100 µM | LOX IMVI > 100 µM | UACC-257 > 100 µM | OVCAR-5 > 100 µM | M14 > 100 µM | HL-60 66.4 µM | COLO 205 > 100 µM | RXF 393 83.9 µM | HOP-62 > 100 µM | EKVX > 100 µM | SNB-75 > 100 µM | SW-620 > 100 µM | HCC 2998 > 100 µM | K562 > 100 µM

O=S(O)c1cc(Cl)cc(Cl)c1O
inactive: UO-31 > 100 µM | LOX IMVI > 100 µM | UACC-257 > 100 µM | OVCAR-5 > 100 µM | SK-OV-3 > 100 µM | M14 > 100 µM | HL-60 > 100 µM | M19-MEL > 100 µM | RXF 393 > 100 µM | HOP-62 > 100 µM | EKVX > 100 µM | SNB-75 75.9 µM | HCC 2998 > 100 µM | K562 > 100 µM

CN(C)CCNC(=O)c1ccc(Cl)c2ccc(-c3ccccc3)nc12
inactive: UO-31 1.77 µM | RPMI-8226 2.51 µM | DMS-273 3 µM | LOX IMVI 2.34 µM | UACC-257 4.04 µM | NCI-H226 2.32 µM | OVCAR-5 3.49 µM | SK-OV-3 4.7 µM | HL-60 2.58 µM | M19-MEL 3.69 µM | COLO 205 1.61 µM | RXF 393 5.38 µM | HOP-62 1.52 µM | KM-20L2 2.62 µM | SNB-75 3.57 µM | SW-620 2.19 µM | HCC 2998 4.67 µM | K562 2.27 µM

c1ccc(Nc2nnc(CCCCCCCCc3nnc(Nc4ccccc4)o3)o2)cc1
inactive: UO-31 > 100 µM | LOX IMVI > 100 µM | UACC-257 > 100 µM | NCI-H226 > 100 µM | OVCAR-5 > 100 µM | SK-OV-3 > 100 µM | M14 > 100 µM | HL-60 > 100 µM | COLO 205 > 100 µM | RXF 393 > 100 µM | HOP-62 > 100 µM | EKVX > 100 µM | SNB-75 > 100 µM | SW-620 > 100 µM | HCC 2998 51.6 µM | K562 > 100 µM

O=S(O)c1cc(Cl)cc(Cl)c1OCc1ccccc1
inactive: UO-31 > 100 µM | LOX IMVI > 100 µM | UACC-257 > 100 µM | OVCAR-5 > 100 µM | SK-OV-3 > 100 µM | M14 > 100 µM | HL-60 > 100 µM | M19-MEL > 100 µM | RXF 393 > 100 µM | HOP-62 > 100 µM | EKVX > 100 µM | SNB-75 > 100 µM | HCC 2998 > 100 µM | K562 > 100 µM

OCC1C2C=CC(O2)[C@H]1CO (stereo partly drawn)
inactive: UO-31 > 100 µM | RPMI-8226 > 100 µM | DMS-273 > 100 µM | LOX IMVI > 100 µM | UACC-257 > 100 µM | NCI-H226 > 100 µM | OVCAR-5 > 100 µM | SK-OV-3 > 100 µM | M14 > 100 µM | HL-60 > 100 µM | M19-MEL > 100 µM | COLO 205 > 100 µM | RXF 393 42.4 µM | HOP-62 > 100 µM | KM-20L2 > 100 µM | EKVX > 100 µM | SNB-75 > 100 µM | SW-620 > 100 µM | HCC 2998 > 100 µM

COc1ccc2cc3[n+](cc2c1OC)CCc1cc2c(cc1-3)OCO2 [BERBERINE CHLORIDE]
inactive: DMS-273 10.3 µM | LOX IMVI 77.1 µM | OVCAR-5 58.3 µM | SK-OV-3 84.5 µM | M14 22.8 µM | HL-60 13.6 µM | M19-MEL 5.56 µM | RXF 393 68.5 µM | KM-20L2 28.2 µM | SNB-75 36.5 µM | SW-620 40.6 µM | K562 16.6 µM
